From article PMC12040169 (PLOS Biology, 2025)

Assay: in vitro
Conditions: human, hela cells, % viability

Row | SMILES | viability at 28.5 h, 10 µM
1 | CCCc1cc(C(N)=O)c(NC(=O)c2cc(-c3ccc(C)o3)nc3ccccc23)s1 [CBK267766C] | 90.9%
2 | CC(C)(C)c1ccc(OCC(=O)Nn2cnnc2)cc1 [CBK027576] | 90.3%
3 | COc1ncc(-c2nccnc2N[C@@H]2CCN(Cc3ccccc3)C2)c(OC)n1 [CBK036926] | 101%
4 | Cc1nn(-c2ccccc2)c(C)c1C1CC(=O)Nc2c1cnn2C(C)C (stereo not drawn) [CBK287925] | 104%
5 | O=C(COc1ccc2ccccc2c1Br)NCc1ccccn1 [CBK267361] | 84.1%
6 | Cc1cc(C(=O)Nc2nncs2)c2ccc(F)cc2n1 [CBK297738] | 85.3%
7 | COc1ccc(-c2cc(C(=O)NCc3cc(Cl)cc(Cl)c3)cnc2-c2ccc(Cl)cc2)cn1 [CBK037431] | 88.8%
8 | CC(=O)Nc1ccc(S(=O)(=O)Nc2ccc(-c3nc4cc(C(=O)c5ccccc5)ccc4[nH]3)cc2)cc1 [CBK267819] | 99.2%
9 | CCN(CC(=O)NCc1ccc(F)cc1)C(=O)c1cc(C#N)c[nH]1 [CBK305221] | 87.9%
10 | COc1ccc(C2c3cc(OC)c(OC)cc3CC(=O)N2c2ccc(C(=O)O)cc2)cc1OC (stereo not drawn) [CBK296082] | 96.4%
11 | COCCn1cc(C(=O)N2CCCC2c2ccncc2)c2ccccc21 (stereo not drawn) [CBK305286] | 91.8%
12 | c1cnc(N2CCCC2)c(OCc2ccsc2)n1 [CBK115664] | 92.2%
13 | Cc1ccc(CC(=O)N2CC(=O)Nc3ccccc32)cc1 [CBK287670] | 86.2%
14 | CC(C)c1cc(C(=O)NCCN2CCc3ccccc32)n(C)n1 [CBK282685] | 86.7%
15 | CSc1sc(C(=O)CC#N)c2c1C=CCC2 [CBK006004] | 91%
16 | O/N=C/c1ccc(-c2cc(Cl)ccc2Cl)o1 [CBK288500] | 92.6%
17 | CCn1cc(C(=O)NN)c(=O)c2cc(F)c(NN)cc21 [CBK262735] | 79.1%
18 | CN(C)CC(=O)N1CCN(c2cncc(-c3ccc(O)cc3)n2)CC1 [CBK126921T] | 97.2%
19 | CN(C)CCN(C)C(=O)Cc1csc(-c2ccccc2F)n1 [CBK282173] | 112%
20 | OCCNc1nc(Nc2ccc(Cl)cc2)nc(N2CCCCC2)n1 [CBK266638] | 97.3%
21 | CN(C)CCCNC(=O)COc1ccccc1 [CBK262189] | 88%
22 | Cc1cc(C)n(C(=O)c2cn3cc(Cl)ccc3n2)n1 [CBK288185] | 98.6%

Row | SMILES | viability at 28.5 h, 10 µM
23 | Cc1ccccc1-c1ocnc1C(=O)NCc1ccco1 [CBK282408] | 84.5%
24 | Cc1ccccc1C(=O)N1C[C@H]2NC(=O)c3ccccc3C(=O)[C@@]2(C)C1 [CBK285316] | 99.7%
25 | CN(CCN1CCOCC1)c1nc2c(c(=O)[nH]1)Cc1ccccc1OC2 [CBK306783] | 75.4%
26 | CCN1CC2(CCC1=O)CCN(c1ccnc(OC)c1C#N)CC2 [CBK307018] | 95%
27 | O=S(=O)(Nc1cccc(-c2nnn[nH]2)c1)c1cc(Br)c(Cl)s1 [CBK160374] | 102%
28 | O=C(O)c1c(Cl)c(C(=O)O)c(C(=O)O)c(Cl)c1C(=O)O [CBK261177] | 96.8%
29 | COc1cc(CNc2cc(C(=O)O)ccc2C)cc(Br)c1OC [CBK269679] | 95.3%
30 | CSCCC(=O)N1CCC2(CCN(Cc3ccccc3)C2)C1 (stereo not drawn) [CBK136838] | 93.8%
31 | CC(C)(C)C(=O)Nc1ccc(S(=O)(=O)NC2CCCCC2)cc1 [CBK268783] | 118%
32 | Cn1nnnc1SCC(=O)Nc1ccc(C(=O)O)cc1 [CBK267442] | 87.3%
33 | CN(C)C(=O)C1CN(C(=O)C(C)(C)c2ccccc2F)C1 [CBK281970] | 113%
34 | CCc1cccc(NC(=O)CCc2ccccc2)c1 [CBK263637] | 112%
35 | O=C(O)c1cccc2cccc(-c3cccc4cccc(C(=O)O)c34)c12 [CBK015494] | 109%
36 | O=C(CSCC(=O)c1ccc(F)cc1)Nc1ccc2ccccc2c1 [CBK263264] | 88.1%
37 | Cc1cc(C)n(-c2ccc3nnc(CCCC(=O)O)n3n2)n1 [CBK307630] | 87.1%
38 | COc1cc(-c2cn3ccnc3c(N(C)CCN(C)C)n2)cc(OC)c1OC [CBK066196] | 100%
39 | CN(Cc1ccccc1)Cc1c(C2CCNCC2)[nH]c2ncccc12 [CBK285083] | 96%
40 | COCCNC(=O)C1CCCN(c2nc3c(-c4ccccc4)csc3c(=O)[nH]2)C1 (stereo not drawn) [CBK215497] | 114%
41 | O=C(NC(Cc1ccsc1)c1ccccn1)c1ccc(=O)[nH]c1 (stereo not drawn) [CBK285272] | 106%
42 | Cc1noc(CN2CCN(CCc3ccc4c(c3)CCO4)CC2)n1 [CBK305208] | 102%
43 | COc1cc(CNC(=O)NC(=O)C2CCN(C(C)C)CC2)cc(OC)c1OC [CBK034800] | 82.9%
44 | O=C(Nc1cccc(NS(=O)(=O)c2ccc(Cl)cc2)c1)c1ccco1 [CBK265956] | 91.2%

Row | SMILES | viability at 28.5 h, 10 µM
45 | Cc1cc(C(F)F)nn1CC(=O)N1CCc2ncc(Cl)cc2C1 [CBK284853] | 108%
46 | COC(=O)c1ccc(/C=N/N=C2\NC(=O)C(CC(=O)Nc3ccccc3)S2)cc1 (stereo not drawn) [CBK264483] | 93.6%
47 | Cc1c(NCc2ccc3c(c2)n(C)c(=O)n3C)cccc1C(=O)O [CBK287237] | 98.6%
48 | CN1C[C@H](CNC(=O)Nc2ccc(F)c(F)c2)[C@@H](c2ccc(Cl)c(Cl)c2)C1 [CBK076770] | 95.7%
49 | CCOc1ccc(S(=O)(=O)NC(C)C(=O)O)cc1C (stereo not drawn) [CBK270178] | 114%
50 | Cc1nnc(Sc2cccc(C(F)(F)F)n2)s1 [CBK115222] | 95.4%
51 | COc1cncc(-c2cc(Nc3ccc(O)cc3)ncn2)c1 [CBK090752] | 98%
52 | O=C(O)COc1ccc(-c2nnn(CC(=O)O)n2)cc1 [CBK267124] | 87.6%
53 | COCCOc1nnc(C)c2ccccc12 [CBK019388] | 93.6%
54 | Cc1ccc2c(CSc3nc(N)cc(N)n3)cc(=O)oc2c1C [CBK297519] | 87.7%
55 | CSc1c(C#N)c(-c2cc(C(C)(C)C)on2)nn1C [CBK006360] | 96.4%
56 | COc1ccccc1C1(NC(=O)Cn2nc(C)cc2C)CCCC1 [CBK283573] | 101%
57 | CN=C(S)N=C(Nc1ccccc1)c1ccccc1 [CBK261037] | 89.1%
58 | COc1ccc(CNC(=O)Cn2nc3c(SCc4ccc(Cl)cc4)nccn3c2=O)cc1 [CBK300541] | 90.5%
59 | Cc1ccc(OCCCN2CCN(C)CC2)c(Cc2ccccc2)c1 [CBK269650C] | 104%
60 | O=C(O)CSc1nnc(-c2sc3ccccc3c2Cl)n1-c1ccccc1 [CBK263830] | 92.9%
61 | Nc1ccn([C@@H]2O[C@H](CO)[C@H](O)C2O)c(=S)n1 (stereo partly drawn) [CBK201293] | 90.9%
62 | CN(C)C(=O)C1(Cc2ccccc2-c2cccs2)CCN(C(=O)Cc2ccccc2)CC1 [CBK285687] | 92.6%
63 | O=C(CC1CCCC1)NCCn1nc(-c2cccs2)ccc1=O [CBK283841] | 91.8%
64 | O=c1[nH]c2ncc(-c3ccco3)nc2n1CCCN1CCOCC1 [CBK064319] | 90.6%
65 | COc1nccnc1OC1CCN(CC(N)=O)CC1 [CBK084248] | 86.7%
66 | CCCC(=O)CCOC(=O)C1=C(C)OC2C1Nc1cc(F)c(F)cc1N2CC (stereo not drawn) [CBK022099] | 93.4%

Row | SMILES | viability at 28.5 h, 10 µM
67 | O=C(O)COc1noc2nc3c(cc12)CCCCC3 [CBK269429] | 97.7%
68 | COC(=O)c1cc(NC(=O)c2cc(-c3ccc(C)o3)nc3ccccc23)cc(C(=O)OC)c1 [CBK265400] | 86.3%
69 | COc1ccccc1-c1cn2ccnc2c(NCc2ccccc2)n1 [CBK037372] | 92.7%
70 | Cc1ccc(C)c(OCC(=O)N(Cc2nc(-c3ccccc3)no2)C2CCCCC2)c1 [CBK269067] | 89.4%
71 | O=C(NCCN1CCCC1)c1ccc2nc[nH]c2c1 [CBK153311] | 86%
72 | O=[N+]([O-])c1cccc(-c2csc(N/N=C\c3cccc(O)c3)n2)c1 [CBK263418] | 95.5%
73 | C(=N\N1CCOCC1)/c1ccc2c(c1)OCO2 [CBK026446] | 108%
74 | CCOc1cc(NC2CCN(C(=O)NCC(F)F)CC2)ncn1 [CBK305485] | 85.6%
75 | Cc1ccc(Cl)c(OCc2nnc(SCC(=O)O)n2N)c1 [CBK268992] | 105%
76 | CCCCNC(=O)CSc1ncccc1C(=O)NCc1cccnc1 [CBK071590] | 91%
77 | CCCN(CCc1ccc(C(F)(F)F)cc1)C1Cc2cc(OC)c(OC)cc2C1 [CBK017829C] | 103%
78 | O=C(c1ccc2[nH]ccc2c1)N1CCC2(CCN(Cc3ccccc3)C2)C1 (stereo not drawn) [CBK137146] | 98.5%
79 | O=C1COc2ccccc2CCCC[C@@H]2CN(C(=O)CN3C(=O)CNC3=O)CC[C@H]2N1 [CBK292047] | 92.7%
80 | O=C(N[C@H]1CCN2C(=O)c3cc(-c4ccccc4)ccc3NC(=O)[C@H]12)C1CCCC1 [CBK289349] | 91.6%
81 | COc1ncc(-c2nccnc2OCCc2c[nH]c3ccccc23)c(OC)n1 [CBK106743] | 79.2%
82 | C=CCOc1ccc2ccccc2c1CNc1nn[nH]n1 [CBK267619] | 92.8%
83 | O=C(NCc1cccnc1)c1ccccc1NS(=O)(=O)c1ccc(F)cc1 [CBK269754] | 70.8%
84 | O=C(COc1ccccc1)Nc1nn(Cc2ccc(S(=O)(=O)N3CCCC3)cc2)c2ccccc12 [CBK061594] | 58.6%
85 | Cc1ccc2cc(C3CC(c4ccccc4)=NN3C(=O)CCC(=O)O)c(=O)[nH]c2c1 (stereo not drawn) [CBK296127] | 109%
86 | O=c1[nH]c2ccccc2n1CCCN1CCC(Cc2ccccc2)CC1 [CBK138318] | 104%
87 | Cc1cnn(C2CCCN(C(=O)CCCc3cccs3)C2)c1 (stereo not drawn) [CBK304168] | 96.3%

Same assay, conditions: human, hela cells, % viability, bulk resorufin, single well

Row | SMILES | viability at 28.5 h, 10 µM
88 | O=C1NC(=S)NC(=O)C1=CNc1ccc(F)c(Cl)c1 [CBK262391] | 118%
89 | N#CC1(c2ccccc2)CCN(C(=O)c2ccccc2C(=O)c2ccccc2)CC1 [CBK091396] | 107%
90 | CCn1nc(-c2ccccc2)nc2c(=O)n(C)c(=O)nc1-2 [CBK000921] | 92.1%
